Results taken from paper PMC9862096, “Interaction of a Homologous Series of Amphiphiles with P-glycoprotein in a Membrane Environment—Contributions of Polar and Non-Polar Interactions” (Pharmaceutics, 2023).
Where two headings read alike, the source gives them in different places.

Experiments:
[1] = cited from earlier work
[2] = target: T1, mouse P–gp (mP–gp) (Mus musculus, UniProt P21447); experiment: P–gp ATPase activity (vanadate-sensitive, end point Pi release) in native membranes; type: biochemical; conditions: for Emax: read-out: V1, maximum activation; for Effect on P–gp ATPase activity: native membranes, Figure 1
T1 construct: made in house; host or cells: High-Five insect cells (Invitrogen), recombinant baculovirus; total membrane vesicles
T1 sequence (P21447 whole entry): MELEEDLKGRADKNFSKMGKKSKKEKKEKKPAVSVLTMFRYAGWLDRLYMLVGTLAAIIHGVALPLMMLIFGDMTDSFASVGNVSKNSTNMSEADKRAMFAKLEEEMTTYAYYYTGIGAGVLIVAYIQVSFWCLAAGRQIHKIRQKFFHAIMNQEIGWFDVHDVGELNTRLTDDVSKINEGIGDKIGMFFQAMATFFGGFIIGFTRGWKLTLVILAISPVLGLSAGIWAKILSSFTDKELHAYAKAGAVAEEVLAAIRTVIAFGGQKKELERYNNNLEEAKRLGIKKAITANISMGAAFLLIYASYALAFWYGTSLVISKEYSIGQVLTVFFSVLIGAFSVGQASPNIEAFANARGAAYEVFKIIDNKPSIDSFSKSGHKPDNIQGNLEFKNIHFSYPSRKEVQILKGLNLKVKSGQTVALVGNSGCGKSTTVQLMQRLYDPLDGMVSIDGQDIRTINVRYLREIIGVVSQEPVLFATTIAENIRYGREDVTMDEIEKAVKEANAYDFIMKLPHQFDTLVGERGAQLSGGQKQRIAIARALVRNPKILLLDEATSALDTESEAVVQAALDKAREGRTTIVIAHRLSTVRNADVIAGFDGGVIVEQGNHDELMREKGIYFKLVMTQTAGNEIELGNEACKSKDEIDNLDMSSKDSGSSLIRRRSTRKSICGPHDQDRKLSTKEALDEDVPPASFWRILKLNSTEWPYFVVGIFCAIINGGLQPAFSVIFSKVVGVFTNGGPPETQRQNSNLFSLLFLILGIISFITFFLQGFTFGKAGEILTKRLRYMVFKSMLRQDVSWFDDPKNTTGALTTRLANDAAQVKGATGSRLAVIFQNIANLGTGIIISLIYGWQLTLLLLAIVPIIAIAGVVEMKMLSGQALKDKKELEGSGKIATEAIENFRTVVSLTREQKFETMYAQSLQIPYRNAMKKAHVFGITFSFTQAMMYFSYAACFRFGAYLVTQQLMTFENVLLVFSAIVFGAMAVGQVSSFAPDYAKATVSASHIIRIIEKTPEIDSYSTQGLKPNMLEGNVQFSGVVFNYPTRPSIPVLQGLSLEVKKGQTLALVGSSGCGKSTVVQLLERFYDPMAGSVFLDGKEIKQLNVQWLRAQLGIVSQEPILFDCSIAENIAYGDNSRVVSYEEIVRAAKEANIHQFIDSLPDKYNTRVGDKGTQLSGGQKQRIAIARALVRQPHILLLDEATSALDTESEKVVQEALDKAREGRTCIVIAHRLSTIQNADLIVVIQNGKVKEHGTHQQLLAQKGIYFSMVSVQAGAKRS
Protocol: High-Five insect cells (Invitrogen) were infected with recombinant baculovirus carrying mouse P–gp (mP–gp) gene (Abcb1a). Membrane vesicles were prepared by hypotonic lysis of the insect cells, followed by ultracentrifugation to collect the membrane vesicles, as described in detail in reference. The native membranes obtained were suspended in storage buffer (45 mM Tris-HCl pH 7.5, 45 mM D-mannitol, 1.8 mM EGTA, 0.45% v/v aprotinin, 1.8 mM DTT, 0.9 mM AEBSF, and 10% v/v glycerol), aliquoted, and stored at −80 °C or in liquid nitrogen until use. The concentration of protein in the native membranes was quantified by the Sherman and Weismann method using Amido Black B dye.
The ATPase activity of P–gp in the High-Five insect cell membranes was measured by the end point Pi release assays, as described earlier with minor modifications. Native membranes were diluted in ATPase assay buffer (final concentrations: 41.2 mM Tris-MES pH = 6.8, 50 mM KCl, 5 mM NaN3, 2 mM EGTA, 1.03 mM Ouabain, 2 mM DTT, and 10 mM MgCl2), and the modulators were added from stocks in DMSO (final DMSO 1% v/v). The final concentration of protein was quantified, being ca. 0.1 mg/mL. Four samples were prepared at each modulator concentration, containing ATP at 5 mM, two of which also contained vanadate at 0.3 mM. P–gp specific activity was measured as vanadate-sensitive ATPase activity. The basal rate of ATP hydrolysis was 67 ± 4 nmol Pi mgP^−1 min^−1, with 37 ± 4 nmol Pi mgP^−1 min^−1 being sensitive to vanadate. The results obtained for the effect of the modulators on the ATPase activity in the presence and absence of vanadate are shown in the Supplementary Information (Figure S1).
The results were then analyzed with the formalism derived in this manuscript considering the distribution of the modulator in the distinct environments (aqueous phase, lipid bilayer and P-gp) and several equal and independent binding sites in P-gp’s binding pocket, Equations (3)–(9). The best fit was obtained with nonlinear least-square analysis using Microsoft Excel.
For the correct analysis of the results, the distribution of the amphiphiles in the distinct environments (aqueous media, lipid bilayer, and P–gp) must be considered. In addition, excess ligand should not be assumed. When considering that P–gp has several binding sites, the kinetic scheme that describes P–gp saturation with ligand is given by Equation (5). For details, see, e.g., references. (5) LW↔KPW→LbLLb LLb=KPW→LbLW VLb/VWLW+P↔β1PL1 PL1=β1PLWi LW+P↔βiPLi PLi=βiPLW^i n LW+P↔βnPLn PLn=βnPLW^n
The overall ATPase activity at each ligand concentration is calculated from the concentration of each protein species PLi and the corresponding ATPase activity Vi , (9) V=V0+∑i=1nPLi Vi
This formalism was used to describe the effect of the NBD amphiphiles on P–gp’s ATPase activity, considering a distinct ATPase activity for P–gp with a different number of amphiphile molecules in the binding pocket.

[3] = Equation (9), local concentrations, n = 1 binding sites, read-out: Kd, microscopic dissociation constant
[4] = Equation (9), local concentrations, n = 2 binding sites, read-out: Kd, microscopic dissociation constant
[5] = Equation (9), local concentrations, n = 3 binding sites, read-out: Kd, microscopic dissociation constant
[6] = Equation (9), local concentrations, n = 4 binding sites, read-out: Kd, microscopic dissociation constant
[7] = Equation (9), local concentrations, n = 5 binding sites, read-out: Kd, microscopic dissociation constant
[8] = Equation (9), n = 3, read-out: β1, macroscopic binding constant of the first ligand (converted)
[9] = Equation (9), n = 4, read-out: β1, macroscopic binding constant of the first ligand (converted)
[10] = Equation (9), n = 5, read-out: β1, macroscopic binding constant of the first ligand (converted)
[11] = Equation (S1), total modulator concentration, constraint K1≤K2 for NBD–C8 and NBD–LysoMPE, [75% confidence interval], read-out: K2, dissociation constant for P–gp inhibition
[12] = Equation (S1), only activation for NBD–C4, constraint K1≤K2 for NBD–C8 and NBD–LysoMPE, [75% confidence interval]
[13] = Equation (S1), total modulator concentration, no constraint between K1 and K2, [75% confidence interval], read-out: K1, dissociation constant for P–gp activation
[14] = Equation (S1), total modulator concentration, no constraint between K1 and K2, [75% confidence interval], read-out: K2, dissociation constant for P–gp inhibition
[15] = Equation (S1), constraint K1≤K2 for NBD–C8
[16] = Equation (S1), no constraint between K1 and K2, [75% confidence interval], listed as NBD-C8
[17] = Equation (S1), no constraint between K1 and K2, [75% confidence interval]

Structure (SMILES)	Kd [2, 3]	Kd [2, 4]	Kd [2, 5]	Kd [2, 6]	Kd [2, 7]	V1, ATPase activity of P–gp with 1 amphiphile bound ([2]; Equation (9), n = 1)	V1, ATPase activity of P–gp with 1 amphiphile bound ([2]; Equation (9), n = 2)	V2, ATPase activity of P–gp with 2 amphiphiles bound ([2]; Equation (9), n = 2)	V1, ATPase activity of P–gp with 1 amphiphile bound ([2]; Equation (9), n = 3)	V2, ATPase activity of P–gp with 2 amphiphiles bound ([2]; Equation (9), n = 3)	V3, ATPase activity of P–gp with 3 amphiphiles bound ([2]; Equation (9), n = 3)	Kd [2, 8]	V1, ATPase activity of P–gp with 1 amphiphile bound ([2]; Equation (9), n = 4)	V2, ATPase activity of P–gp with 2 amphiphiles bound ([2]; Equation (9), n = 4)	V3, ATPase activity of P–gp with 3 amphiphiles bound ([2]; Equation (9), n = 4)	V4, ATPase activity of P–gp with 4 amphiphiles bound ([2]; Equation (9), n = 4)	Kd [2, 9]	V1, ATPase activity of P–gp with 1 amphiphile bound ([2]; Equation (9), n = 5)	V2, ATPase activity of P–gp with 2 amphiphiles bound ([2]; Equation (9), n = 5)	V3, ATPase activity of P–gp with 3 amphiphiles bound ([2]; Equation (9), n = 5)	further results
CCCCNc1ccc([N+](=O)[O-])c2nonc12 [NBD–C4]	75 µM	18 µM	11 µM	7 µM	9 µM	703%	100%	535%	109%	109%	512%	3.57 µM	110%	110%	110%	501%	1.85 µM	110%	110%	110%	LogKP, association with POPC bilayers [1]: 2.99; V4, ATPase activity of P–gp with 4 amphiphiles bound ([2]; Equation (9), n = 5): 259%; V5, ATPase activity of P–gp with 5 amphiphiles bound ([2]; Equation (9), n = 5): 491%; Kd [2, 10]: 1.82 µM; K2, dissociation constant for P–gp inhibition ([2]; Equation (S1), total modulator concentration, constraint K1≤K2 for NBD–C8 and NBD–LysoMPE, [75% confidence interval]): outside the concentration range studied; Kd [2, 11]: > 60 µM; Emax [2, 12]: 734%; Effect on P–gp ATPase activity [2]: activation
CCCCCCCCNc1ccc([N+](=O)[O-])c2nonc12 [NBD–C8]	3 µM	11 µM	4 µM	4 µM	6 µM	286%	388%	0%	112%	403%	65%	1.28 µM	113%	260%	317%	62%	1 µM	122%	275%	253%	LogKP, association with POPC bilayers [1]: 4.67; Kd ([2]; Equation (9), n = 2, read-out: β1, macroscopic binding constant of the first ligand (converted)): 5.26 µM; V4, ATPase activity of P–gp with 4 amphiphiles bound ([2]; Equation (9), n = 5): 253%; V5, ATPase activity of P–gp with 5 amphiphiles bound ([2]; Equation (9), n = 5): 0%; Kd [2, 10]: 1.16 µM; Kd [2, 11]: 29 µM; Kd [2, 13]: 17 µM; Kd [2, 14]: 29 µM; V2, residual activity at infinite modulator concentration [2, 15]: 0%; V1, maximum activation [2, 16]: 494 [380, 3000] %; V2, residual activity at infinite modulator concentration [2, 16]: 0 [0, 103] %; V2, residual activity at infinite modulator concentration ([2]; Equation (S1), no constraint between K1 and K2, [75% confidence interval], listed as NBD‐C8): 0%; Emax [2, 17]: 497%; V1, maximum activation [2, 12]: 494 % of the basal ATPase activity; V1, maximum activation ([2]; Equation (S1), only activation for NBD–C4, constraint K1≤K2 for NBD–C8 and NBD–LysoMPE, [75% confidence interval], listed as NBD-C8): 494 [380, 598] % of the basal ATPase activity; Emax [2, 12]: 497%; Effect on P–gp ATPase activity [2]: both activation and inhibition
CCCCCCCCCCCCCC(=O)OCC(O)COP(=O)(O)OCCNc1ccc([N+](=O)[O-])c2nonc12 (stereo not shown) [NBD–LysoMPE]	20 µM	6 µM	3 µM	3 µM	3 µM	0%	122%	0%	99%	146%	0%	1.09 µM	100%	100%	129%	0%	0.714 µM	100%	100%	116%	LogKP, partition coefficient for POPC bilayers [1]: 4.2; V4, ATPase activity of P–gp with 4 amphiphiles bound ([2]; Equation (9), n = 5): 97%; V5, ATPase activity of P–gp with 5 amphiphiles bound ([2]; Equation (9), n = 5): 0%; Kd [2, 10]: 0.588 µM; Kd [2, 13]: > 5 µM; Kd [2, 14]: ≤ 15 µM; V2, residual activity at infinite modulator concentration [2, 15]: 0%; V1, maximal ATPase activation ([2]; Equation (S1), in any case (with or without constraints on K1, K2)): < 126%; V2, residual activity at infinite modulator concentration [2, 17]: 0%; Emax [2, 17]: 102%; Emax [2, 12]: 106%; Effect on P–gp ATPase activity [2]: mostly inhibition
